Tested on: Caco-2 cells
Assay: Caco-2 permeability
Format: in vitro ADME
Settings: Caco-2 bidirectional assay
Method: (iii) Caco-2 Permeability
Caco-2 cells were seeded onto Millipore Multiscreen plates at 1×10^5 cells/cm^2, and were cultured for 20 days. Assessment of compound permeability was subsequently conducted. The compounds were applied to the apical surface (A) of cell monolayers and compound permeation into the basolateral (B) compartment was measured. This was performed in the reverse direction (B-A) to investigate active transport. A permeability coefficient value, Papp, for each compound, a measure of the rate of permeation of the compound across the membrane, was calculated. Compounds were grouped into low Papp</=1.0×10^6 cm/s) or high Papp>/=1.0×10^6cm/s) absorption potential based on comparison with control compounds with established human absorption.
For assessment of a compound's ability to undergo active efflux, the ratio of basolateral (B) to apical (A) transport compared with A to B was determined. Values of B−A/A−B>/=1.0 indicated the occurrence of active cellular efflux. All of the compounds tested through the Caco-2 permeability screen had Papp values >/=[…].

Structure (SMILES): CN1CCN(Cc2cc3nc(-c4cccc(O)c4)nc(N4CCOCC4)c3s2)CC1 [PI540]
- B−A/A−B asymmetry index: less than 1.0

Reference: patent publication US7776856B2, “Pharmaceutical compounds” (F. Hoffman-La Roche AG, priority 2004, dated 2010)
